Holding throughout (assay): relative viability (nuclei count vs DMSO), 5 days (fraction); higher = more cells survive
Compound in the experiment “BAY61-3606 + Linsitinib”: COC1=C(C=C(C=C1)C2=CC3=NC=CN3C(=N2)NC4=C(C=CC=N4)C(=O)N)OC [BAY61-3606] + C[C@]1(O)C[C@@H](c2nc(-c3ccc4ccc(-c5ccccc5)nc4c3)c3c(N)nccn32)C1 [Linsitinib] (partner 1 µM)
An outline of the steps:
(§1)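 Relative viability equals treated-well nuclei counts divided by vehicle-well nuclei counts. Counts came from 4× images of lung cancer cell lines grown in 1536-well plates for 5 days after pin-tool dosing on the day after seeding. Dosing used one drug alone or a fixed anchor-drug dose plus five library-drug doses (not always all listed) in √10 steps, and values are medians of duplicate plates.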

Compound in the experiment “Doxorubicin + Bortezomib”: COc1cccc2c1C(=O)c1c(O)c3c(c(O)c1C2=O)C[C@@](O)(C(=O)CO)C[C@@H]3O[C@H]1C[C@H](N)[C@H](O)[C@H](C)O1 [Doxorubicin] + CC(C)C[C@H](NC(=O)[C@H](Cc1ccccc1)NC(=O)c1cnccn1)B(O)O [Bortezomib] (partner 0.002 µM)
An outline of the steps:
as §1

Compound in the experiment “Doxorubicin + Tozasertib”: COc1cccc2c1C(=O)c1c(O)c3c(c(O)c1C2=O)C[C@@](O)(C(=O)CO)C[C@@H]3O[C@H]1C[C@H](N)[C@H](O)[C@H](C)O1 [Doxorubicin] + Cc1cc(Nc2cc(N3CCN(C)CC3)nc(Sc3ccc(NC(=O)C4CC4)cc3)n2)n[nH]1 [Tozasertib] (partner 0.1 µM)
An outline of the steps: as §1

Compound in the experiment “Doxorubicin + Dasatinib”: COc1cccc2c1C(=O)c1c(O)c3c(c(O)c1C2=O)C[C@@](O)(C(=O)CO)C[C@@H]3O[C@H]1C[C@H](N)[C@H](O)[C@H](C)O1 [Doxorubicin] + Cc1nc(Nc2ncc(C(=O)Nc3c(C)cccc3Cl)s2)cc(N2CCN(CCO)CC2)n1 [Dasatinib] (partner 0.075 µM)
An outline of the steps:
as §1

UMC-11: the relative viability with BAY61-3606 + Linsitinib (first compound 0.02 µM) amounted to 1.08; with BAY61-3606 + Linsitinib (first compound 0.06325 µM) it was 1.11; in the experiment with BAY61-3606 + Linsitinib (first compound 0.2 µM), 0.995; in the experiment with BAY61-3606 + Linsitinib (first compound 0.6325 µM), 1.08; with BAY61-3606 + Linsitinib (first compound 2 µM), 1; with Doxorubicin + Bortezomib (first compound 0.001 µM), 0.667. The relative viability in the experiment with Doxorubicin + Bortezomib (first compound 0.003162 µM) came out at 0.543; in the experiment with Doxorubicin + Bortezomib (first compound 0.01 µM), 0.668; with Doxorubicin + Bortezomib (first compound 0.03162 µM), 0.379; in the experiment with Doxorubicin + Bortezomib (first compound 0.1 µM), 0.436; in the experiment with Doxorubicin + Tozasertib (first compound 0.001 µM), 0.22; in the experiment with Doxorubicin + Tozasertib (first compound 0.003162 µM), 0.215. Further, the relative viability was 0.209 with Doxorubicin + Tozasertib (first compound 0.01 µM); 0.21 in the experiment with Doxorubicin + Tozasertib (first compound 0.03162 µM); 0.208 with Doxorubicin + Tozasertib (first compound 0.1 µM); 0.43 in the experiment with Doxorubicin + Dasatinib (first compound 0.001 µM); 0.47 with Doxorubicin + Dasatinib (first compound 0.003162 µM); 0.44 with Doxorubicin + Dasatinib (first compound 0.01 µM). For the same cell line, the figures for the relative viability in the experiment with Doxorubicin + Dasatinib (first compound 0.03162 µM) and in the experiment with Doxorubicin + Dasatinib (first compound 0.1 µM) were 0.446 and 0.282, respectively.

Values taken from the supplement of paper PMC10307832.
